Read-outs that look alike come from different tables or passages of the source.
Assays:
[1] = target: T1, DENV-2 NS2B/NS3pro (Dengue virus type 2, UniProt P14340); assay: DENV-2 NS2B/NS3pro protease inhibition assay (fluorogenic Boc-GRR-MCA substrate); format: biochemical; conditions: for IC50: 3 μM protease, 25 μM substrate
T1 construct: pQE30.CF40.gly(T).NS3pro expression plasmid; 6x-His (N); glycine linker (gly(T)) joining CF40 to NS3pro (C); made in house; host or cells: Escherichia coli strain XL1-Blue
Protocol: The DENV-2 NS2B/NS3pro expression was carried out according to the established method by Yusof et al., (2000) with minor modifications according to published articles. The plasmid encoding the NS2B/NS3 protease sequence from DENV-2 was transformed into Escherichia coli strain XL1-Blue transformed with pQE30.CF40.gly(T).NS3pro expression plasmid were grown in LB medium containing 10 μg/ml ampicillin at 37°C until the OD600 reached 0.6. First, the cells were incubated at 37°C, 200 rpm until OD600 reached ~0.6. One ml of isopropyl-β-D-thiogalactopyranoside (0.5 mM in LB medium) was added to the bacterial cells for 2 hours to induce protein expression. Expression of the recombinant protein was induced by the addition of […] IPTG and the culture was incubated for 2 hours.
The cells were harvested by centrifugation at 8000 rpm (Sorvall RC-5B Refrigerated Superspeed centrifuge) for 15 minutes at […]. The cell pellets were thawed (1 g) and resuspended in lysis buffer (5 mL) followed by mixing them using vortex until milky. For purification, cells were lysed by sonication conducting (6 times 15-second pulse, duty cycle 10%, output control no 3) using Ultrasonic Cell Disruptor, Branson Sonifier 450, Germany. The lysate was incubated on ice for 1 hour and then centrifuged at 8000 rpm for 1 hour at 4°C. The soluble 6x-His-NS2B/NS3protease in its native form was filtered ([…]), batch-bound to 2 x 2 ml Ni^2+-NTA (nickel-nitrilotriacetic acid) resin (pre-equilibrated with column buffer) and incubated overnight at 4°C. The resin was cleaned up from the unbound fraction by centrifugation and the resin with bound protein was collected and loaded into columns (Bio-Rad; 1 x 3 cm). The gradient technique columns were washed extensively with 3 x 15 ml of wash buffer and further eluted with 10 ml of elution buffer for each column while being monitored using Bio-Rad Bradford protein assay. The purified protein was then analysed with 12% SDS-PAGE, pooled and stored at -80°C for further use in the dengue protease activity and inhibition studies. The dengue protease activity assay was developed as previously described with a slight modification. Briefly, the assay system comprised of 200 mM Tris-HCl (pH 8.5) buffer, DENV-2 NS2B/NS3pro and Boc-GRR-MCA as the substrate. Protease optimum assay was executed to ascertain maximum protease activity at constant concentration of the substrate (25 μM). The protease concentrations were varied within 0–10 μM. The 7-Amino-4-methylcoumarin (AMC) produced was measured as fluorescence intensity at λexcitation of 340 nm and λemission of 440 nm by using ELISA modulus microplate reader.
The compounds were also checked for its requirement to pass the pan assay interference compounds (PAINS) (http://cbligand.org/PAINS/) before tested for their inhibition activities against DENV-2 NS2B/NS3pro at a range of concentrations (0 to 300 μg/mL). […] The concentration of the protease being used was 3 μM initially incubated with the compound for 10 minutes at 37°C with 200 rpm of rotation. Subsequently, 25 μM of the substrate was added and the incubation was further prolonged for 60 minutes. The fluorescence intensity at 340/ 440 nm was measured as the AMC byproduct was released upon the peptide substrate cleavage by the protease. The experiments were triplicated and Panduratin A was used as the positive control.

[2] = target: T1, DENV-2 NS2B/NS3pro; set-up: method as in PMID 16621533; conditions: competitive inhibition; cited from earlier work
[3] = six newly designed compounds, Table 3, read-out: IC50
[4] = TG derivatives, Table 2, read-out: IC50

T1 sequence (P14340 1398-1437): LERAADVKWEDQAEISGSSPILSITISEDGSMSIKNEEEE
T1 sequence (P14340 1476-1653): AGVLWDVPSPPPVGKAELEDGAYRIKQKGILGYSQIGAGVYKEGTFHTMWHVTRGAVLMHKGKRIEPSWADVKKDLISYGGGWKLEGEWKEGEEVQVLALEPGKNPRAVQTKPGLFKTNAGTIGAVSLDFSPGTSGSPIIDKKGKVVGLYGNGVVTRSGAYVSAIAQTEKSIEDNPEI

| SMILES | IC50 [1, 3] | IC50 [1, 4] | further results |
| --- | --- | --- | --- |
| CCCCC(=O)Nc1nc(SC(=O)CCCC)c2nc[nH]c2n1 [Compound 18] | 0.38 µM | – | – |
| CCC(=O)Nc1nc(SC(=O)CC)c2nc[nH]c2n1 [Compound 16] | 97 µM | – | – |
| CCCCC(=O)Nc1nc(SCc2ccccc2)c2nc[nH]c2n1 [Compound 19] | 54 µM | – | – |
| CC(C)C(=O)Nc1nc(SC(=O)C(C)C)c2nc[nH]c2n1 [Compound 17] | 80 µM | – | – |
| COc1cc(O)c(C(=O)[C@@H]2[C@H](CC=C(C)C)C(C)=CC[C@H]2c2ccccc2)c(O)c1 [Panduratin A, panduratin A, reference compound] | – | – | IC50 ([1]; NCI diversity set hits, read-out: Experimental IC50): 56 µM; Ki [2]: 25 µM |
| COc1ccc(S(=O)(=O)Nc2nc(S)c3nc[nH]c3n2)cc1 [Compound 5] | – | 55 µM | – |
| CCCCC(=O)Nc1nc(SCc2ccccc2)c2ncn(Cc3ccccc3)c2n1 [Compound 21] | 16 µM | – | – |
| CC(C)Cn1cnc2c(SCc3cccc4ccccc34)nc(N)nc21 [Compound 20] | 258 µM | – | – |
| COc1cccc(S(=O)(=O)Nc2nc(S)c3nc[nH]c3n2)c1 [Compound 4] | – | 68 µM | – |
| Nc1nc2nc[nH]c2c(=S)[nH]1 [TG, thioguanine] | – | 753 µM | inhibition at 200 µg/mL [1]: 56% |

From PMC6345492, “Thioguanine-based DENV-2 NS2B/NS3 protease inhibitors: Virtual screening, synthesis, biological evaluation and molecular modelling” (PLoS ONE, 2019)
